Data: patent US20120289501A1, “Benzene-fused 6-membered oxygen-containing heterocyclic derivatives of bicyclic heteroaryls” (NOVARTIS AG, priority 2009, published 2012)

Legend:
Test in all cases: Enzymatic kinase assay (filter-binding / flashplate, 33P incorporation)
Type in all cases: biochemical
Settings in all cases: enzymatic kinase selectivity
Aurora A = target: T1, Aurora A (Homo sapiens, UniProt O14965)
T1 sequence (O14965 1-403): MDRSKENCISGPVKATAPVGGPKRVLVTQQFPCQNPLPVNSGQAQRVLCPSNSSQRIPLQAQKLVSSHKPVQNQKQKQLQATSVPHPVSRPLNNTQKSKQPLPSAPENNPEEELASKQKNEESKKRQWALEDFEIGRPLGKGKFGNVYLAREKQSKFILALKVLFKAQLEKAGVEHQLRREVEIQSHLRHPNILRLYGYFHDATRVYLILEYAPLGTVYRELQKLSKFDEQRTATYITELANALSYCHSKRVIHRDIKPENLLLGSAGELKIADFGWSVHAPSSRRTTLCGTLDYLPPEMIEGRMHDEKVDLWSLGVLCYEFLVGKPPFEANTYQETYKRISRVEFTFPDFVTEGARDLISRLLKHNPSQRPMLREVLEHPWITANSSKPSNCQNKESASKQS
Protocol: (§1) Two methods were used to analyze phosphorylated peptides and proteins produced by the listed tyrosine and serine/threonine-specific protein kinases: either using a filter-binding assay (FB), or using a flashplate assay (FP). The activities of protein kinases were assayed in the presence or absence of inhibitors, by measuring the incorporation of ^33P from [γ^33P]ATP into appropriate substrates.
(§2) 96-well polypropylene microplates were used to assay the activity in the FB mode. To determine the inhibitory activity of compounds 10 μL of compound dilutions were pipetted into 96-well plates followed by the addition of 10 μL of assay mix and 10 μL of individual enzymes. With the addition of the enzymes the reactions were initiated and continued at RT. The reactions were stopped by the addition of 50 μL of a 125 mM EDTA solution pH 8.0. The final concentration of DMSO in the enzyme assays was 1%.
(§3) Flashplates are available as 96-well standard (STFPs) or as streptavidin-(SAFPs) or nickel coated FPs (NiFPs) from Perkin Elmer. STFPs are 96-well polystyrene microplates in which the interior of each well is permanently coated with a thin layer of polystyrene-based scintillant. Streptavidin flashplates (SAFP) are 96 or 384-well STFPs coated with streptavidin. SAFPs are suitable for a wide variety of assay applications which utilize biotinylated capture molecules. NiFP or nickel chelate flashplates are 96- or 384-well STFPs coated with nickel chelate. NiFPs are designed for in-plate, radiometric assays which utilize 4- or 6-histidine tagged proteins and peptides.
(§4) All kinase assays were performed in STFPs for 60 mins at RT and stopped with 50 μL of 0.5% H3PO4 except PKA which were carried out in polypropylene 96- and 384-well plates, respectively. PKA assays were stopped with 50 μL of 125 mM EDTA (pH 8.0) and 50 μL were transferred to either SAFPs or NIFPs to capture the biotinylated or histidine tagged peptides phosphorylated by PKA (SAFP) or by NiFPs. All wells were then washed three times with 200 μL of 0.5% H3PO4 and the plates were dried at room temperature. The plates were sealed and counted in a microplate scintillation counter (TopCount NXT, TopCount NXT HTS). The final concentration of DMSO in the enzyme assays was 1%.

ERK2 = ERK2 (Homo sapiens, UniProt P28482)
Protocol: as §1, §2, §3, §4

cABLT315 = cABLT315 (Homo sapiens, UniProt P00519, T315I)
Protocol: as §1, §2, §3, §4

cKIT = cKIT (Homo sapiens, UniProt P10721)
Protocol: as §1, §2, §3, §4

PDGFRa = PDGFRa (Homo sapiens, UniProt P16234)
Protocol: as §1, §2, §3, §4

EphA4 = EphA4 (Homo sapiens, UniProt P54764)
Protocol: as §1, §2, §3, §4

P38a = P38a (Homo sapiens, UniProt Q16539)
Protocol: as §1, §2, §3, §4

LCK = LCK (Homo sapiens, UniProt P06239)
Protocol: as §1, §2, §3, §4

cMET = cMET (Homo sapiens, UniProt P08581)
Protocol: as §1, §2, §3, §4

IGF1R = IGF1R (Homo sapiens, UniProt P08069)
Protocol: as §1, §2, §3, §4

MK2 = MK2 (Homo sapiens, UniProt P49137)
Protocol: as §1, §2, §3, §4

GSK3beta = GSK3beta (Homo sapiens, UniProt P49841)
Protocol: as §1, §2, §3, §4

HER2 = HER2 (Homo sapiens, UniProt P04626)
Protocol: as §1, §2, §3, §4

CDK2A = CDK2A (Homo sapiens, UniProt P24941)
Protocol: as §1, §2, §3, §4

RET = RET (Homo sapiens, UniProt P07949)
Protocol: as §1, §2, §3, §4

KDR = KDR (Homo sapiens, UniProt P35968)
Protocol: as §1, §2, §3, §4

InsR = InsR (Homo sapiens, UniProt P06213)
Protocol: as §1, §2, §3, §4

COT1 = COT1 (Homo sapiens, UniProt P41279)
Protocol: as §1, §2, §3, §4

FGFR-4 = FGFR-4 (Homo sapiens, UniProt P22455)
Protocol: as §1, §2, §3, §4

JAK2 = JAK2 (Homo sapiens, UniProt O60674)
Protocol: as §1, §2, §3, §4

TYK2 = TYK2 (Homo sapiens, UniProt P29597)
Protocol: as §1, §2, §3, §4

MK2, sequence (P49137 whole entry, species assumed): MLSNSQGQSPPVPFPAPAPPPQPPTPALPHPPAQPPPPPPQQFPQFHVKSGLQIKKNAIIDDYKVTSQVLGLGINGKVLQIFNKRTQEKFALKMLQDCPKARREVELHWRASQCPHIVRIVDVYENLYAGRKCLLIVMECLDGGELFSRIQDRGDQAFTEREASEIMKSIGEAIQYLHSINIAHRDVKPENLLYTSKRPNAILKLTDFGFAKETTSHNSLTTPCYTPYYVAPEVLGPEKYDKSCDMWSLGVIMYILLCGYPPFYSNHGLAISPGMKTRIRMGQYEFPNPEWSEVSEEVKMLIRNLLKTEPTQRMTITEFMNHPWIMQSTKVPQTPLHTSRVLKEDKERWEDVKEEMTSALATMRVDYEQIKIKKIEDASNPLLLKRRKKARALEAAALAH
COT1, sequence (P41279 whole entry): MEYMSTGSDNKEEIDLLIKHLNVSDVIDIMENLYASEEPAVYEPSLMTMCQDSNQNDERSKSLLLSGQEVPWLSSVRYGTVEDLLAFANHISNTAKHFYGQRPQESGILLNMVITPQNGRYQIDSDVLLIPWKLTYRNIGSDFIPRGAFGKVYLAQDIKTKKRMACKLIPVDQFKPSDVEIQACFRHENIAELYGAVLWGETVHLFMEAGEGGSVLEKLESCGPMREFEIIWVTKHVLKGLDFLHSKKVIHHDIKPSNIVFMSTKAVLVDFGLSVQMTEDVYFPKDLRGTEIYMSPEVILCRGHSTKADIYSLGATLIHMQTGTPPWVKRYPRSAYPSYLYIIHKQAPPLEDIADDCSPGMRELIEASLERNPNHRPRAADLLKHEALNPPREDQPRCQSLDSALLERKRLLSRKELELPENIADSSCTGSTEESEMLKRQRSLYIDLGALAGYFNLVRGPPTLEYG
RET, sequence (P07949 29-1114, species assumed): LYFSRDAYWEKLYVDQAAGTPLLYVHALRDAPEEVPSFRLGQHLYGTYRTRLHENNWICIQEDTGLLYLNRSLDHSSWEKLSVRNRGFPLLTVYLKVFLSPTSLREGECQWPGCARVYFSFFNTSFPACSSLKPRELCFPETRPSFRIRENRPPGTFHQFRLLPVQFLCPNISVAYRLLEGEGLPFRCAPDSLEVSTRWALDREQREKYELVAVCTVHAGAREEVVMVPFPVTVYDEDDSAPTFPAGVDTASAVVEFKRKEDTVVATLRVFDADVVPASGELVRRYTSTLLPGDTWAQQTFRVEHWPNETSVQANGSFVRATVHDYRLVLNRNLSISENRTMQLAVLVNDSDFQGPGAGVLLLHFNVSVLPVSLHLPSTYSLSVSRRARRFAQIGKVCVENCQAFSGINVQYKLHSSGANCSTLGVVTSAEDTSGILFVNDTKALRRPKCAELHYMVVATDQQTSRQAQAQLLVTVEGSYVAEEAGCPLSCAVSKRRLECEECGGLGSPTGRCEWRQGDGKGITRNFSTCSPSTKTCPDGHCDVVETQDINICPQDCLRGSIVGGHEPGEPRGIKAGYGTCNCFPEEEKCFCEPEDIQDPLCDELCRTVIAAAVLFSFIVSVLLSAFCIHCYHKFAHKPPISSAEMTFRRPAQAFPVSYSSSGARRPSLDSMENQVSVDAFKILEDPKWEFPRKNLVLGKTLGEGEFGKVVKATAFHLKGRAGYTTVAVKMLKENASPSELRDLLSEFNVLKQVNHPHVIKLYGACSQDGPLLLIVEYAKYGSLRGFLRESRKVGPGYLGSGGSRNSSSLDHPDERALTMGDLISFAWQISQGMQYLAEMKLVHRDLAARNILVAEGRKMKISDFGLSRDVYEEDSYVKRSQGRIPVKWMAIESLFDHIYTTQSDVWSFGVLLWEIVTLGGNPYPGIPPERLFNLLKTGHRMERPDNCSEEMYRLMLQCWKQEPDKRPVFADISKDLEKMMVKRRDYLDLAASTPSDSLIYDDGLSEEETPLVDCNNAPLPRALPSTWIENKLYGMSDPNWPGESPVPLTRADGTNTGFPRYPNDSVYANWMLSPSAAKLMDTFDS
KDR, sequence (P35968 20-1356, species assumed): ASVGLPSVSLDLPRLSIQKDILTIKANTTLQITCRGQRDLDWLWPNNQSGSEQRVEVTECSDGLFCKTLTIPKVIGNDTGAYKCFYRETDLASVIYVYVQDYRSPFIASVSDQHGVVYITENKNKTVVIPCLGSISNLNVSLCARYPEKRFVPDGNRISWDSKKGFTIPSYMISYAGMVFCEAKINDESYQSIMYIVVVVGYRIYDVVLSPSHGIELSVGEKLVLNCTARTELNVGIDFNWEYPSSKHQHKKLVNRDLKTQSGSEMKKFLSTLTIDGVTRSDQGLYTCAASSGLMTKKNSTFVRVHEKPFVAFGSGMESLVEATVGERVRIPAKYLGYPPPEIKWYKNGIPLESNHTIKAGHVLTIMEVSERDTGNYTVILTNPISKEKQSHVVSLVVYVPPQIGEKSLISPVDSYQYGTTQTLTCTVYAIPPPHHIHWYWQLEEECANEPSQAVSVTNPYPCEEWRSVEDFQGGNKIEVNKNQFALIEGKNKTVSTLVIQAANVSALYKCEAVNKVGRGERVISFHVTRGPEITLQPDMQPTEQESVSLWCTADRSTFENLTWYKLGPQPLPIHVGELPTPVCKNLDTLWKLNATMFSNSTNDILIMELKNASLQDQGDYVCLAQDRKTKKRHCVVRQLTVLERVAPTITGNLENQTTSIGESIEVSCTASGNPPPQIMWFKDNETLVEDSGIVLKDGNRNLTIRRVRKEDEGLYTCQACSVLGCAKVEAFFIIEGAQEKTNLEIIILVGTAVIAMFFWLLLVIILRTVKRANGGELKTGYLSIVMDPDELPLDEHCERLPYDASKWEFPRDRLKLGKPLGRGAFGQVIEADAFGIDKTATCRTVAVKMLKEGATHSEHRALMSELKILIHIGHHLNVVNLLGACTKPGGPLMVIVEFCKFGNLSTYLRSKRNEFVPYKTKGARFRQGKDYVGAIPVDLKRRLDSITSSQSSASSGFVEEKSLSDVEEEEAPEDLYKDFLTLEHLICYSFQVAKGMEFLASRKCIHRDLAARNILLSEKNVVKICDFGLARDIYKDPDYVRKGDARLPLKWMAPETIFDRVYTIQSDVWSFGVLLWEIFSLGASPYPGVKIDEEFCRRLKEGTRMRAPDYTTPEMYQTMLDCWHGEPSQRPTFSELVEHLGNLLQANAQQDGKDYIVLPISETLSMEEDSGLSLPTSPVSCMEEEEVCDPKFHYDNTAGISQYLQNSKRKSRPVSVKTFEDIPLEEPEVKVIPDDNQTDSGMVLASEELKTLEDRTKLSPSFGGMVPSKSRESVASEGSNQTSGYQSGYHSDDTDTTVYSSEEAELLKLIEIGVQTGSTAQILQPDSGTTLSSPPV
P38a, sequence (Q16539 whole entry): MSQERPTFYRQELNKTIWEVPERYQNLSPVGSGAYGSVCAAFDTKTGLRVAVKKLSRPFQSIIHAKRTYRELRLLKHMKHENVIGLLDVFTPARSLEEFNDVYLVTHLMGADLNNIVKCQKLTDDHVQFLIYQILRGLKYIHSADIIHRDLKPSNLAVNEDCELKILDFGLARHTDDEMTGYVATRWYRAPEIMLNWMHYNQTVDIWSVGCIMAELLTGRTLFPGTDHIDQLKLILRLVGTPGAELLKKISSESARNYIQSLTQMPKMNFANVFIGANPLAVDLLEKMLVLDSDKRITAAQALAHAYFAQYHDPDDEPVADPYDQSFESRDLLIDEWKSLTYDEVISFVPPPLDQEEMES
InsR, sequence (P06213 28-1382, species assumed): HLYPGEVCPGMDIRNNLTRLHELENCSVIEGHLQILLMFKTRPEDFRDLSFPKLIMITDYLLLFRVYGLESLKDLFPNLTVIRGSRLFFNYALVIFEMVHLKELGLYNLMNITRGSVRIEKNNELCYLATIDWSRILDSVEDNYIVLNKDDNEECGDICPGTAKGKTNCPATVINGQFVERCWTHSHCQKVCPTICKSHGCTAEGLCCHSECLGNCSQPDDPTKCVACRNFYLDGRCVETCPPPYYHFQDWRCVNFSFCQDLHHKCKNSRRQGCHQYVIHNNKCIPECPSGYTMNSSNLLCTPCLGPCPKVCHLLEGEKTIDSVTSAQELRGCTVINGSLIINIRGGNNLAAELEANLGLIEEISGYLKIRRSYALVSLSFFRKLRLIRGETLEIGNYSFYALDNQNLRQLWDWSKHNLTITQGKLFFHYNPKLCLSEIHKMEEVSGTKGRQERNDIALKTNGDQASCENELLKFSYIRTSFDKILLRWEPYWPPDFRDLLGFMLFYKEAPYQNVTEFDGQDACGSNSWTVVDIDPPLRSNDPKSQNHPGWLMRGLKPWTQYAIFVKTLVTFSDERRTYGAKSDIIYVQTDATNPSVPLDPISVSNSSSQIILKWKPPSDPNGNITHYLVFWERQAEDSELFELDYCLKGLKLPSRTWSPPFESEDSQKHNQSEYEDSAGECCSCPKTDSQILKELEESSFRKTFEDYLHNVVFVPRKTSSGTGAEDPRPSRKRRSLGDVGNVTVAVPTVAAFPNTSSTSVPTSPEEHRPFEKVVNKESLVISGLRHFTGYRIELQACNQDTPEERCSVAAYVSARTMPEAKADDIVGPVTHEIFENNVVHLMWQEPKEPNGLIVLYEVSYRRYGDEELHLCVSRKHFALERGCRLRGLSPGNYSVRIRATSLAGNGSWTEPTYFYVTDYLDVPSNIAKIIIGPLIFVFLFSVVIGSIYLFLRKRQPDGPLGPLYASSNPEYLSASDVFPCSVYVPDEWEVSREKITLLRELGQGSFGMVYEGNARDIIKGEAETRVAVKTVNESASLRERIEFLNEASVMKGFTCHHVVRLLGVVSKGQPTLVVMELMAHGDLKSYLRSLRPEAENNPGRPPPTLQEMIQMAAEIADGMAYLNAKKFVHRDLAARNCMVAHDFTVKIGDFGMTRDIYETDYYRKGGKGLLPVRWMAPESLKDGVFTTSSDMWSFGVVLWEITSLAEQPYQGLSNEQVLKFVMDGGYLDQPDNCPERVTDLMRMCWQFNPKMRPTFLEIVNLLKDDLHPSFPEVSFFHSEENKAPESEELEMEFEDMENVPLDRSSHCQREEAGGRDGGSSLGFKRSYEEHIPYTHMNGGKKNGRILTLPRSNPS

Row | IC50 (Aurora A) [nM] | IC50 (ERK2) [nM] | IC50 (cABLT315) [nM] | IC50 (cKIT) [nM] | IC50 (PDGFRa) [nM] | IC50 (EphA4) [nM] | IC50 (P38a) [nM] | IC50 (LCK) [nM] | IC50 (cMET) [nM] | IC50 (IGF1R) [nM] | IC50 (MK2) [nM] | IC50 (GSK3beta) [nM] | IC50 (HER2) [nM] | IC50 (CDK2A) [nM] | IC50 (RET) [nM] | IC50 (KDR) [nM] | IC50 (InsR) [nM] | IC50 (COT1) [nM] | IC50 (FGFR-4) [nM] | IC50 (JAK2) [nM] | SMILES | also measured
1 | 4300 | > 10000 | 8000 | 3200 | 1200 | > 10000 | > 10000 | 4460 | > 10000 | 50 | > 10000 | > 10000 | > 10000 | > 10000 | 360 | 160 | 780 | > 10000 | > 10000 | > 10000 | CC(=O)NC[C@H]1C[C@@H](n2cc(-c3ccc4c(c3)OC(c3ccccc3)CC4)c3c(N)ncnc32)C1 (mixture of isomers) [Example 16, (R,S)—N-{cis-3-[4-Amino-5-(2-phenyl-chroman-7-yl)-pyrrolo[2,3-d]pyrimidin-7-yl]-cyclobutylmethyl}-acetamide] | IC50 (TYK2): > 10000 nM
2 | 4000 | > 10000 | > 10000 | 770 | 770 | > 10000 | > 10000 | 3600 | > 10000 | 7.8 | > 10000 | > 10000 | > 10000 | > 10000 | 25 | 110 | 73 | > 10000 | > 10000 | > 10000 | Nc1ncnc2c1c(-c1ccc3c(c1)OC(c1ccccc1)C=C3)cn2[C@H]1C[C@@H](CN2CCS(=O)(=O)CC2)C1 (mixture of isomers) [Example 21, (R,S)-7-[cis-3-(1,1-Dioxo-1-thiomorpholin-4-ylmethyl)-cyclobutyl]-5-(2-phenyl-2H-chromen-7-yl)-7H-pyrrolo[2,3-d]pyrimidin-4-ylamine] | IC50 (TYK2): > 10000 nM
3 | > 10000 | > 10000 | > 10000 | 6000 | > 10000 | > 10000 | > 10000 | 3800 | > 10000 | 17 | > 10000 | > 10000 | > 10000 | > 10000 | 410 | 240 | 100 | > 10000 | > 10000 | > 10000 | CC(=O)N1CCN([C@H]2C[C@@H](n3cc(-c4ccc5c(c4)OC(c4ccccc4)CC5)c4c(N)ncnc43)C2)CC1 (relative stereo) [Example 38, 1-(4-{cis-3-[4-Amino-5-(2-phenyl-chroman-7-yl)-pyrrolo[2,3-d]pyrimidin-7-yl]-cyclobutyl}-piperazin-1-yl)-ethanone] | IC50 (TYK2): > 10000 nM
4 | 8800 | > 10000 | 4350 | > 10000 | > 10000 | > 10000 | > 10000 | 6150 | > 10000 | 58 | > 10000 | > 10000 | > 10000 | > 10000 | 760 | 250 | 1450 | > 10000 | 8900 | > 10000 | Nc1ncnc2c1c(-c1ccc3c(c1)OC(c1ccccc1)CC3)cn2C1CC(O)(CO)C1 (single isomer, unassigned) [Example 26] | IC50 (TYK2): > 10000 nM
